{
  "source": "patent US20250108036A1",
  "about": "“COMPOSITIONS FOR REMOVING SENESCENT CELLS AND USES THEREOF” (LIFECEUTIX CO., LTD., priority 2021, published 2025)",
  "key": {"[1]": {"test_system": "A549", "assay": "CellTiter-Glo cell viability of senescent A549 cancer cells (Example 12, Table 67)", "assay_type": "cell-based, human", "conditions": "Homo sapiens, A549, doxorubicin-induced senescent A549 cancer cells, 1.1 μM test compound, CellTiter-Glo; read-out: Survival (%)"}, "[2]": {"test_system": "umbilical cord-derived mesenchymal stem cells", "assay": "death of senescent stem cells by LX-112", "assay_type": "cell-based, human", "conditions": "LX-112 10 μM", "procedure": "In addition to somatic cells, the death of senescent cells by LX-112 was confirmed to be about 50% in stem cells (umbilical cord-derived mesenchymal stem cells, purchased from ATCC) at a concentration of 10 μM. From this, it was confirmed that LX-112 can effectively remove senescent cells by inducing their death."}, "[3]": {"test_system": "SAOS-2", "assay": "CellTiter-Glo cell viability of senescent SAOS-2 cancer cells (Example 2-2)", "assay_type": "cell-based, human", "conditions": "DOX → LX (LX-112 5 μM)", "procedure": "The standard for treating various cancers, including osteosarcoma, is repeated chemotherapy. Accordingly, aging was induced in SAOS-2 in the same manner as in Example 2-1, and then (i) treated again with doxorubicin (DOX→DOX) or (ii) treated with the LX-112 (5 μM) composition (DOX→LX-112)."}, "[4]": {"test_system": "aging-related inflammation and fibrosis secretory factors (SASP)", "assay": "ProcartaPlex immunoassay of SASP factors in culture medium of senescent foreskin cells (Example 5)", "assay_type": "cell-based, human", "conditions": "LX-112 3 μM; senescent untreated = 100%", "procedure": "In the same manner as Example 3, natural aging of human foreskin cells was induced and treated with LX-112 at a concentration of 3 μM. Then the expression levels of aging-related inflammation and fibrosis secretory factors (SASP), IL1α, IL1β, IL6, IL10, MCP1, PAI1 VCAM1, MMP1, MMP2, MMP3, MMP12, and TGFβ, were measured using an immunoassay (ProcartaPlex Immunoassay, purchased from Thermo Fisher Scientific) with the obtained culture medium. […] Table 17 calculates the amount of each factor after inducing aging to 100% and compares it with the amount of each factor after treatment with LX-112."}, "[5]": {"test_system": "urea, creatinine, Agtr1a mRNA", "assay": "kidney damage markers in naturally aged mice (Example 7-8)", "assay_type": "in vivo, C57BL6J mice", "conditions": "LX-112 70 mg/kg oral daily 21 days, aged untreated = 100%", "procedure": "After 22-month-old female C57BL6J mice (purchased from KRIBB Laboratory Animal Resource Center) were adapted to the experimental environment for one week, the aged mice were randomized into an experimental group and a control group. 8-week-old mice that were not aged were used as controls. LX-112 was mixed with 0.5% CMC-Na solution (purchased from Sigma) and administered orally at a concentration of 70 mg/kg daily for 21 days. The control group was administered only the solution in the same volume. After drug administration was completed, the method described in each Example below was performed.\nThe amounts of urea and creatinine, markers of kidney damage, in serum collected from mice were measured by spectrophotometry using a kit (purchased from BioAssay Systems and Sigma). Additionally, the amount of Agtr1a mRNA, a kidney damage marker, was measured by qRT-PCR as described in Example 7-2. […] The amount of each factor after inducing aging was calculated as 100% and compared with the amount of each factor after treatment with LX-112."}, "[6]": {"assay": "fatigue/weakness tests and body weight in doxorubicin-aged mice (Example 8-7)", "assay_type": "in vivo, C57BL6J mice", "procedure": "After adapting 8-week-old male C57BL6J mice (purchased from KRIBB Laboratory Animal Resource Center) to the experimental environment for 1 week, doxorubicin, an anticancer drug, was administered intraperitoneally at a concentration of 10 mg/kg, and mice that were induced to age for more than 10 days were assigned to an experimental group and a control group. LX-112 was mixed with 0.5% CMC-Na solution (purchased from Sigma) and administered orally at a concentration of 70 mg/kg daily for 21 days. The control group was administered only the solution in the same volume. After drug administration was completed, the method described in each Example below was performed.\nIn the same way as Example 7-7, in order to analyze fatigue and weakness that occur as a side effect due to treatment with anticancer drugs in mice, activity evaluation (open field test), endurance evaluation (wire hanging test), and muscle strength and grip strength test (grip strength test) were performed. […] In Table 47, the amount of each evaluation after aging was induced by treatment with the anticancer drug was calculated as 100% and compared it with the amount of each evaluation after treatment with LX-112."}, "[7]": {"test_system": "IL6, activin A", "assay": "serum IL6 and activin A ELISA in obesity-aged mice (Example 9-3)", "assay_type": "in vivo, C57BL6J mice", "conditions": "LX-112 70 mg/kg oral daily 21 days", "procedure": "(§1) 15-week-old male C57BL6J mice (purchased from Jackson Laboratories), whose obesity was induced by a high-fat diet, were adapted to the experimental environment for one week, and then the mice were randomized into an experimental group and a control group. LX-112 was mixed with 0.5% CMC-Na solution (purchased from Sigma) and administered orally at a concentration of 70 mg/kg daily for 21 days. The control group was administered only the solution in the same volume. After drug administration was completed, the method described in each Example below was performed. Mice were sacrificed and the weight of adipose tissue in each area was measured.\nUsing the same method as in Example 7-5, the amount of IL6 and activin A, which are aging-related inflammation secretory factors (SASP), were measured in serum collected from mice using an enzyme-linked immunosorbent assay (ELISA Kit, purchased from R&D Systems)."}, "[8]": {"assay": "open field test in obesity-aged mice (Example 9-4)", "assay_type": "in vivo, C57BL6J mice", "conditions": "LX-112 70 mg/kg oral daily 21 days, DIO without LX = 100%", "procedure": "as §1\nAccordingly, the open field test was performed to analyze lethargy due to anxiety and depression caused by obesity in mice using the same method as Example 7-7. […] Table 58 calculates the amounts of activity after aging induced by obesity as 100% and compares it with the amount of activity evaluation after treatment with LX-112."}, "[9]": {"assay": "Oil Red O staining of liver of obesity-aged mice (Example 9-5)", "assay_type": "in vivo, C57BL6J mice", "conditions": "stained area, LX-112 70 mg/kg oral daily 21 days, DIO without LX = 100%", "procedure": "as §1\nTable 60 calculates the stained area of Oil Red O after aging induced by obesity as 100% and compares it with the stained area of Oil Red O after treatment with LX-112."}},
  "data": [
    {"compound": "COC(=O)c1ccc([C@H]2c3[nH]c4ccccc4c3C[C@H](C(=O)OC)N2C(=O)CCl)cc1", "note": "[LX-405]", "values": [
      {"measurement": "viability at 1.1 µM", "setting": "[1]", "result": 23.8, "unit": "%"}
    ]},
    {"compound": "O=c1c2ccccc2[se]n1CCn1[se]c2ccccc2c1=O", "note": "[LX-112, 1,2-[bis(1,2-benzisoselenazolone-3(2H)-ketone)]ethane]", "values": [
      {"measurement": "death of senescent cells", "setting": "[2]", "result": "about 50%"},
      {"measurement": "Survival (%)", "setting": "[3]; 3 d", "result": "35 (±4) %"},
      {"measurement": "Survival (%)", "setting": "[3]; 7 d", "result": "14 (±5) %"},
      {"measurement": "Protein (%) IL1α", "setting": "[4]", "result": "57 (±5) %"},
      {"measurement": "Protein (%) IL1β", "setting": "[4]", "result": "46 (±6) %"},
      {"measurement": "Protein (%) IL6", "setting": "[4]", "result": "41 (±4) %"},
      {"measurement": "Protein (%) IL10", "setting": "[4]", "result": "57 (±7) %"},
      {"measurement": "Protein (%) MCP1", "setting": "[4]", "result": "38 (±8) %"},
      {"measurement": "Protein (%) MMP1", "setting": "[4]", "result": "43 (±3) %"},
      {"measurement": "Protein (%) MMP2", "setting": "[4]", "result": "39 (±9) %"},
      {"measurement": "Protein (%) MMP3", "setting": "[4]", "result": "38 (±8) %"},
      {"measurement": "Protein (%) MMP12", "setting": "[4]", "result": "41 (±6) %"},
      {"measurement": "Protein (%) PAI1", "setting": "[4]", "result": "41 (±4) %"},
      {"measurement": "Protein (%) TGFβ", "setting": "[4]", "result": "49 (±9) %"},
      {"measurement": "Protein (%) VCAM1", "setting": "[4]", "result": "45 (±5) %"},
      {"measurement": "Agtr1a mRNA (%)", "setting": "[5]; kidney damage marker", "result": "64 (±7) %"},
      {"measurement": "Creatinine (%)", "setting": "[5]; serum", "result": "87 (±7.8) %"},
      {"measurement": "Urea (%)", "setting": "[5]; serum", "result": "69 (±6) %"},
      {"measurement": "Open Field Test Time in Center (%)", "setting": "[6]; Table 47, doxorubicin-aged mice, LX-112 70 mg/kg oral daily 21 days, DOX without LX = 100", "result": "129 (±15) %"},
      {"measurement": "Mean Body Weight (g)", "setting": "[6]; mice, doxorubicin 10 mg/kg i.p. without or with LX-112 70 mg/kg oral daily 21 days", "result": "22.8 (±3.1) g"},
      {"measurement": "Activin A (%)", "setting": "[7]", "result": "64.5 (±12.3) %"},
      {"measurement": "IL6 (%)", "setting": "[7]", "result": "51.8 (±14.2) %"},
      {"measurement": "Open Field Test Time in Center (%)", "setting": "[8]", "result": "137.5 (±15) %"},
      {"measurement": "Oil Red O (%)", "setting": "[9]", "result": "74 (±7.3) %"}
    ]}
  ]
}
